Legend:
p48 SIP kinase [1] = molecular target: T1, p48 SIP kinase (Nicotiana tabacum, UniProt A0A1S3Z5Y0); assay: In-solution kinase assay: effects of various reagents on p48 SIP kinase activity; type: biochemical, tobacco; conditions: for effect on p48 SIP kinase activity: partially purified p48 SIP kinase; for activity at 5000 µM: 5 mM
T1 construct: endogenous in cells; host or cells: SA-treated tobacco suspension culture cells (purified through the poly-L-lysine agarose step)
Experimental: (§1) Unless specifically indicated, assays were performed at room temperature for 20 minutes in a final volume of 15 μl containing 0.5 mg/mL of MBP, 50 μM of γ-^32 P-ATP (about 3000-6000 cpm/pmole), 25 mM Tris pH 7.5, 5 mM MgCl2, 1 mM EGTA, 1 mM DTT, and enzyme. The reaction was terminated by the addition of equal volume of 150 mM H3 PO4. Twenty μL of the mixture was spotted onto an 8-well phosphocellulose filter strip (Pierce, Ill.). After washing with 150 mM H3 PO4 extensively, the phospho-protein was eluted with 0.4 mL of 1 N NaOH, and the radioactivity was determined by liquid scintillation counting. Total cpm in the reaction mixture was also determined in order to calculate the specific activity of the enzyme preparation. One unit of p48 SIP kinase was defined as the amount of enzyme that will catalyze the transfer of 1 pmole of phosphate from ATP to MBP in 1 minute.
^a For each reagent, a dose response curve was measured under standar
assay conditions. About 0.5 unit of enzyme was used for each reaction.
Control was the enzyme activity in the absence of reagent.

[2] = molecular target: p48 SIP kinase (salicylic acid-induced protein kinase), activated form from SA- or H2O2-treated tobacco cells, in extracts or purified (tobacco (Nicotiana tabacum cv Xanthi nc))
p48 SIP kinase [3] = molecular target: T1, p48 SIP kinase; assay: Kinetic properties, substrates, cofactors and pH dependence of p48 SIP kinase (in-solution kinase assay); type: biochemical, tobacco; conditions: for metal ion requirement of the enzyme: FIG. 10B; for use as phospho-donor / phosphate donor: data not shown
Experimental: FIGS. 10A and 10B show a pair of graphs illustrating the effect of pH (FIG. 10A), Mg^2+ and Mn^2+ (FIG. 10B) on p48 SIP kinase activity. Approximately 0.5 unit of partially purified enzyme was used in each test. Buffers used for measuring the effect of pH were 50 mM 2-[N-morpholino]ethanesulfonic acid (Mes, pH 5.0-8.0, .circle-solid.), 50 mM Tris (pH 6.0-9.5, .tangle-solidup.), and 50 mM 3-[cyclohexylamino]-1-propanesulfonic acid (Caps, pH 9.0-12.0, .box-solid.). For testing the effects of Mg^2+ (.circle-solid.), and Mn^2+ (.tangle-solidup.), buffer B from the last purification step was first exchanged to Mg^2+ -free buffer using a desalting column. Mg^2+ was not added in reactions for testing the effect of Mn^2+.
FIG. 11 is a graph depicting the protein substrate preference of the p48 SIP kinase. About 0.5 unit of partially purified enzyme was used in each reaction. The assay conditions were as described below in Example 1, except various concentrations of MBP (.circle-solid.), histone (.tangle-solidup.), and casein (.box-solid.) were used.
as §1

p48 SIP kinase [4] = assay: In-gel kinase activity assay (MBP substrate) in extracts of treated tobacco suspension cells: activation of p48 SIP kinase; type: cell-based, Nicotiana tabacum cv Xanthi nc; conditions: tobacco suspension cells; for activation of 48 kDa (p48 SIP) kinase: 250 μM, MBP substrate; for duration of SIP kinase activation relative to SA: data not shown for analogues
Experimental: The cell suspension culture was derived from callus tissue originated from leaves of Nicotiana tabacum cv Xanthi nc and grown in MS medium supplemented with 1 mg/L α-naphthaleneacetic acid, 0.1 mg/L 2,4-dichlorophenoxyacetic acid, 0.1 mg/L benzyladenine, and 3% sucrose. Log phase cells were used three days after a 1:10 dilution. Treatment with H2 O2, SA and its analogues was performed in the original flasks in the dark to avoid any stresses associated with transfer. At various times, 10 mL cells (approximately 0.2 to 0.3 g fresh weight of cells) were harvested by filtration. The cells were quickly frozen in liquid nitrogen and stored at -80° C. until analysis.
Leaf discs were first ground to a fine powder in 1.5 ml microcentrifuge tubes using small plastic pestles. After adding 0.25 mL extraction buffer (100 mM Hepes, pH 7.5, 5 mM EDTA, 5 mM EGTA, 10 mM DTT, 10 mM Na3 VO4, 10 mM NaF, 50 mM β-glycerolphosphate, 1 mM phenylmethylsulfonyl fluoride, 5 μg/mL antipain, 5 μg/mL aprotinin, 5 μg/mL leupeptin, 10% glycerol, 7.5% polyvinylpolypyrrolidone), the mixture was sonicated for 15 seconds with a W-375 Sonicator (Heat System-Ultrasonics, Inc., N.Y.) fitted with a microprobe at setting 4 and 80% duty cycle. To prepare extracts from treated cells, cells were mixed with two volumes (w/v) of extraction buffer and were then sonicated twice for 15 seconds each in 1.5 mL microcentrifuge tube. After centrifugation at 13,000 rpm for 20 minutes, supernatants were transferred into clean tubes, quickly frozen in liquid nitrogen and stored at -80° C.
The in-gel kinase assay was performed as described previously (Zhang et al., 1993). Extracts containing 10 μg protein were electrophoresed on 10% SDS-polyacrylamide gels imbedded with either 1 mg/mL of casein, 1 mg/mL histone (Type III-SS, Sigma, MO), 1 mg/mL BSA, or 0.25 mg/mL of MBP in the separating gel as substrate for the kinase. After electrophoresis, SDS was removed by washing the gel with washing buffer (25 mM Tris, pH 7.5, 0.5 mM DTT, 0.1 mM Na3 VO4, 5 mM NaF, 0.5 mg/mL BSA, 0.1% Triton X-100 [v/v]). The buffer was changed three times, each for 30 minutes at room temperature. The kinases were allowed to renature in 25 mM Tris, pH 7.5, 1 mM DTT, 0.1 mM Na3 VO4, 5 mM NaF at 4° C. overnight with three changes of buffer. The gel was then incubated at room temperature in 30 mL reaction buffer (25 mM Tris, pH 7.5, 2 mM EGTA, 12 mM MgCl2, 1 mM DTT, 0.1 mM Na3 VO4) with 200 nM ATP plus 50 μCi γ-^32 P-ATP (3000 Ci/mmole) for 60 minutes. The reaction was stopped by transferring the gel into 5% TCA (w/v)/1% NaPPi (w/v). The unincorporated γ-^32 P-ATP was removed by washing in the same solution for at least 6 hours with 5 changes of buffer. The gel was dried onto 3 MM paper and exposed to Kodak XAR-5 film. Prestained size markers (Bio-Rad, CA) were used to calculate the size of the kinases. Quantitation of the relative kinase activities were done using a phosphoimager (Molecular Dynamics Inc., CA).

[5] = tested on: PR gene expression and enhanced disease resistance; conditions: Conrath et al., 1995; cited from earlier work
p48 SIP kinase [6] = assay: Treatment of p48 SIP kinase with phosphatases; type: biochemical, tobacco; conditions: okadaic acid against PP1; Na3 VO4 against YOP
Experimental: FIG. 13 is a histogram showing inactivation of p48 SIP kinase by phosphatase treatment. Approximately 20 units of the SIP kinase was treated with either the serine/threonine-specific phosphatase PPI (0.1 units) or the tyrosine-specific protein phosphatase YOP (0.5 units) for 10 min (bars 2 to 5) or 30 min (bars 7 to 10) at 30° C. in the presence or absence of a phosphatase inhibitor. Bars 1 and 6 represent the control without phosphatase or phosphatase inhibitor; bars 2 and 7, PPI; bars 3 and 8, PPI plus okadaic acid (1 μM); bars 4 and 9, YOP; bars 5 and 10, YOP plus Na3 VO4 (1 mM). Before assaying for SIP kinase activity, the phosphatase inhibitors were added to all of the reactions to the same final concentrations.
The phosphatase inhibitors present in the purified p48 SIP kinase preparation were first removed by dialysis against buffer B lacking β-glycerophosphate and Na3 VO4 in a 0.5-mL 10 K dialysis cassette (Slide-A-Lyzer; Pierce). For treatment with serine/threonine protein phosphatase PP1 (Calbiochem, San Diego, Calif.), MnCl2, DTT, and BSA were added to aliquots of the SIP kinase preparation to final concentrations of 200 μm, 5 mM and 100 μg/mL respectively. Then 0.1 unit of PP1 was added, and the reaction mixture was incubated at 30° C. in the presence or absence of 1 μM of the phosphatase inhibitor okadaic acid (Calbiochem). […]

[7] = 20 min, pH 7.5, read-out: Relative Activity

T1 sequence (A0A1S3Z5Y0 whole entry): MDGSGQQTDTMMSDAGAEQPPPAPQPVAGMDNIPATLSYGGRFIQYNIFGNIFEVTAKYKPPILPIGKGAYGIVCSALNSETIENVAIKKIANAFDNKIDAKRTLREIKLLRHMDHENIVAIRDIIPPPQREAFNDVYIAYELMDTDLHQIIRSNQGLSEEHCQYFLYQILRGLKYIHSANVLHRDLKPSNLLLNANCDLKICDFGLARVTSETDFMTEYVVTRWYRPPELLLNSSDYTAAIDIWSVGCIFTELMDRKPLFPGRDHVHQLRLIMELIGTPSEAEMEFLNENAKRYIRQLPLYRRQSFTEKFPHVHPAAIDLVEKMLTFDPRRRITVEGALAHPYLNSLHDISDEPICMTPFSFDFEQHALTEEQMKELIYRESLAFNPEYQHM

COC(=O)[C@@]1(O)C[C@H]2O[C@]1(C)n1c3ccccc3c3c4c(c5c6ccccc6n2c5c31)C(=O)NC4 [K-252a]
IC50 (p48 SIP kinase [1]): 12 nM
activity at 0.012 µM (p48 SIP kinase [1]; [7]): 50%

protamine
Relative Activity % of control (% of control at 25 µg mL^-1) [2]: 50

O=C(O)CN(CCOCCOCCN(CC(=O)O)CC(=O)O)CC(=O)O [EGTA]
activity at 10000 µM (p48 SIP kinase [1]; 20 min, pH 7.5, 10 mM, read-out: Relative Activity): 100%
effect on p48 SIP kinase activity (p48 SIP kinase [1]): no effect on its activity

CN(C)C(=O)/N=N/C(=O)N(C)C [Diamide]
activity at 5000 µM (p48 SIP kinase [1]; [7]): 50%

Poly-L-glutamate [listing 1 of 2 here]
Relative Activity % of control (% of control at 500 µg mL^-1) [2]: 50

Poly-L-lysine [listing 1 of 2 here]
Relative Activity (p48 SIP kinase [1]; 25 μg mL^-1, 20 min): 50 % of control
effect on p48 SIP kinase activity (p48 SIP kinase [1]): showed inhibitory effects

[Mg+2] [Mg^2+]
metal ion requirement of the enzyme (p48 SIP kinase [3]): absolute requirement
MgCl2 concentration up to which kinase activity was strongly stimulated (p48 SIP kinase [3]; total concentration): ≤ 2 mM

[Zn+2] [Zn^2+]
Relative Activity (p48 SIP kinase [1]; 0.10 mM, 20 min): 100 % of control
Relative Activity (p48 SIP kinase [1]; 0.25 mM, 20 min): 50 % of control
effect on p48 SIP kinase activity (p48 SIP kinase [1]): inhibited the enzyme

Nc1nc2c(ncn2[C@@H]2O[C@H](COP(=O)(O)OP(=O)(O)OP(=O)(O)O)[C@@H](O)[C@H]2O)c(=O)[nH]1 [Mg^2+ -GTP]
use as phospho-donor / phosphate donor (p48 SIP kinase [3]): could not use
use as phospho-donor / phosphate donor (p48 SIP kinase [3]; listed as GTP): unable to use GTP as a phosphate donor

Poly-L-glutamine [listing 1 of 2 here]
Relative Activity (p48 SIP kinase [1]; 500 μg mL^-1, 20 min): 100 % of control
effect on p48 SIP kinase activity (p48 SIP kinase [1]): showed no effect at the concentrations tested

O=C(O)c1cccc(O)c1 [3-HBA, 3-hydroxybenzoic acid]
activation of 48 kDa (p48 SIP) kinase (p48 SIP kinase [4]): poor activators

O=C(O)c1ccc(O)cc1 [4-HBA]
activation of 48 kDa (p48 SIP) kinase (p48 SIP kinase [4]): poor activators

Nc1ncnc2c1ncn2[C@@H]1O[C@H](COP(=O)(O)OP(=O)([O-])OP(=O)([O-])O)[C@@H](O)[C@H]1O.[Mg+2] [Mg^2+ -ATP]
Vmax (p48 SIP kinase [3]): 0.39 µmol/min/mg
Km (p48 SIP kinase [3]; Mg^2+ -ATP): 24 µM

Heparin
Relative Activity (p48 SIP kinase [1]; 50 μg mL^-1, 20 min): 50 % of control
effect on p48 SIP kinase activity (p48 SIP kinase [1]): showed inhibitory effects

O=C(O)c1ccc(Cl)cc1O [4-CSA, 4-chloroSA]
activation of 48 kDa (p48 SIP) kinase (p48 SIP kinase [4]): activated the SIP kinase to similar extents as SA
duration of SIP kinase activation relative to SA (p48 SIP kinase [4]): more sustained activation of the SIP kinase than SA
induction of PR gene expression and enhanced disease resistance [5]: induce PR gene expression and enhanced disease resistance in tobacco

OC(CS)C(O)CS (stereo not drawn) [DTT]
activity at 5000 µM (p48 SIP kinase [1]; [7]): 100%

[Mn+2] [Mn^2+]
metal ion requirement of the enzyme (p48 SIP kinase [3]): could not substitute for Mg^2+

O=C(O)c1cc(Cl)ccc1O [5-CSA]
activation of 48 kDa (p48 SIP) kinase (p48 SIP kinase [4]): activated the SIP kinase to similar extents as SA
duration of SIP kinase activation relative to SA (p48 SIP kinase [4]): more sustained activation of the SIP kinase than SA
induction of PR gene expression and enhanced disease resistance [5]: induce PR gene expression and enhanced disease resistance in tobacco

[Na+] [Na^+]
Relative Activity (p48 SIP kinase [1]; 100 mM, 20 min): 100 % of control
Relative Activity (p48 SIP kinase [1]; 750 mM, 20 min): 50 % of control

[Ca+2] [Ca^2+]
Relative Activity (p48 SIP kinase [1]; 0.5 mM, 20 min): 100 % of control
Relative Activity (p48 SIP kinase [1]; 5.0 mM, 20 min): 50 % of control
effect on p48 SIP kinase activity (p48 SIP kinase [1]): inhibited the enzyme
calcium requirement for activity (p48 SIP kinase [3]): lacks a calcium requirement for activity

Poly-L-glutamine [listing 2 of 2 here]
Relative Activity % of control (% of control at 500 µg mL^-1) [2]: 100

Poly-L-glutamate [listing 2 of 2 here]
Relative Activity (p48 SIP kinase [1]; 500 μg mL^-1, 20 min): 50 % of control
effect on p48 SIP kinase activity (p48 SIP kinase [1]): showed inhibitory effects

Poly-L-lysine [listing 2 of 2 here]
Relative Activity % of control (% of control at 25 µg mL^-1) [2]: 50

NCCCCNCCCN [Spermidine, spermidine]
activity at 1000 µM (p48 SIP kinase [1]; 20 min, pH 7.5, 1 mM, read-out: Relative Activity): 100%
effect on p48 SIP kinase activity (p48 SIP kinase [1]): showed no effect at the concentrations tested

Protamine
Relative Activity (p48 SIP kinase [1]; 25 μg mL^-1): 50 % of control
effect on p48 SIP kinase activity (p48 SIP kinase [1]): showed inhibitory effects

[Na+].[Na+].[Na+].[O]=[V]([O-])([O-])[O-] [Na3 VO4]
prevention of phosphatase inactivation of SIP kinase (p48 SIP kinase [6]): could be prevented

O=c1c(-c2ccc(O)cc2)coc2cc(O)cc(O)c12 [Genistein, genistein]
activity at 20 µM (p48 SIP kinase [1]; 20 min, pH 7.5, 20 μM, read-out: Relative Activity): 100%
effect on p48 SIP kinase activity (p48 SIP kinase [1]): no effect on its activity

CN[C@@H]1C[C@H]2O[C@@](C)([C@@H]1OC)n1c3ccccc3c3c4c(c5c6ccccc6n2c5c31)C(=O)NC4 [Staurosporine, staurosporine]
IC50 (p48 SIP kinase [1]): 60 nM
activity at 0.06 µM (p48 SIP kinase [1]; [7]): 50%

— patent US5977442A, “Salicylic acid induced map kinase and its use for enhanced disease resistance in plants” (priority 1997, dated 1999)
